How the values were obtained:
Experiment in all cases: Post-emergence test experiment (greenhouse pot, spray at 2-3 leaf stage)
Assay type in all cases: in vivo
Details in all cases: 1000 g/ha; post-emergence spray at 2-3 leaf stage; assessed after 3 weeks; fresh weight inhibition rate
Echinochloa crusgalli = tested on: Echinochloa crusgalli
Method in brief: (§1)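 Activity graded levels 0-5 by fresh-weight inhibition (level 5 above 85%, level 0 below 5%), assessed 3 weeks after treatment. Plants grown in greenhouse pots were sprayed post-emergence at 2-3 leaves using acetone/tween-80 solutions with methyl oleate synergist (1.5 L/ha).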

Galium spurium = tested on: Galium spurium
Method in brief: as §1

Digitaria sanguinalis = tested on: Digitaria sanguinalis
Method in brief: as §1

Abutilon theophrasti = tested on: Abutilon theophrasti
Method in brief: as §1

Monochoria vaginalis = tested on: Monochoria vaginalis
Method in brief: as §1

| Structure (SMILES) | Activity level (growth inhibition rate) Echinochloa crusgalli (Echinochloa crusgalli) | Activity level (growth inhibition rate) Galium spurium (Galium spurium) | Activity level (growth inhibition rate) Digitaria sanguinalis (Digitaria sanguinalis) | Activity level (growth inhibition rate) Abutilon theophrasti (Abutilon theophrasti) | Activity level (growth inhibition rate) Monochoria Vaginalis (Monochoria vaginalis) |
| --- | --- | --- | --- | --- | --- |
| CC(Oc1nc(F)c(Cl)c(N)c1Cl)C(=O)OCc1ncns1 (stereo not shown) [Compound 167] | 5 (Level 5: the growth inhibition rate is greater than 85%) | 5 (Level 5: the growth inhibition rate is greater than 85%) | 5 (Level 5: the growth inhibition rate is greater than 85%) | 5 (Level 5: the growth inhibition rate is greater than 85%) | 5 (Level 5: the growth inhibition rate is greater than 85%) |
| CC(Oc1nc(F)c(Cl)c(N)c1Cl)C(=O)SCc1ccccc1N=[N+]=[N-] (stereo not shown) [Compound 94] | 5 (Level 5: the growth inhibition rate is greater than 85%) | 5 (Level 5: the growth inhibition rate is greater than 85%) | 5 (Level 5: the growth inhibition rate is greater than 85%) | 5 (Level 5: the growth inhibition rate is greater than 85%) | 5 (Level 5: the growth inhibition rate is greater than 85%) |
| CC(Oc1nc(F)c(Cl)c(N)c1Cl)C(=O)OCc1ccc2c(ccn2C)c1 (stereo not shown) [Compound 171] | 5 (Level 5: the growth inhibition rate is greater than 85%) | 5 (Level 5: the growth inhibition rate is greater than 85%) | 5 (Level 5: the growth inhibition rate is greater than 85%) | 5 (Level 5: the growth inhibition rate is greater than 85%) | 5 (Level 5: the growth inhibition rate is greater than 85%) |
| CC(Oc1nc(F)c(Cl)c(N)c1Cl)C(=O)OCCc1cnsc1 (stereo not shown) [Compound 162] | 5 (Level 5: the growth inhibition rate is greater than 85%) | 5 (Level 5: the growth inhibition rate is greater than 85%) | 5 (Level 5: the growth inhibition rate is greater than 85%) | 5 (Level 5: the growth inhibition rate is greater than 85%) | 5 (Level 5: the growth inhibition rate is greater than 85%) |
| CC(Oc1nc(F)c(Cl)c(N)c1Cl)C(=O)OCc1cscn1 (stereo not shown) [Compound 158] | 5 (Level 5: the growth inhibition rate is greater than 85%) | 5 (Level 5: the growth inhibition rate is greater than 85%) | 5 (Level 5: the growth inhibition rate is greater than 85%) | 5 (Level 5: the growth inhibition rate is greater than 85%) | 5 (Level 5: the growth inhibition rate is greater than 85%) |
| CC(Oc1nc(F)c(Cl)c(N)c1Cl)C(=O)OCCc1nnco1 (stereo not shown) [Compound 148] | 5 (Level 5: the growth inhibition rate is greater than 85%) | 5 (Level 5: the growth inhibition rate is greater than 85%) | 5 (Level 5: the growth inhibition rate is greater than 85%) | 5 (Level 5: the growth inhibition rate is greater than 85%) | 5 (Level 5: the growth inhibition rate is greater than 85%) |
| CC(Oc1nc(F)c(Cl)c(N)c1Cl)C(=O)SCc1ccccn1 (stereo not shown) [Compound 235] | 5 (Level 5: the growth inhibition rate is greater than 85%) | 5 (Level 5: the growth inhibition rate is greater than 85%) | 5 (Level 5: the growth inhibition rate is greater than 85%) | 5 (Level 5: the growth inhibition rate is greater than 85%) | 5 (Level 5: the growth inhibition rate is greater than 85%) |
| CC(Oc1nc(F)c(Cl)c(N)c1Cl)C(=O)OCc1cccc(OCC(F)(F)F)c1 (stereo not shown) [Compound 96] | 5 (Level 5: the growth inhibition rate is greater than 85%) | 5 (Level 5: the growth inhibition rate is greater than 85%) | 5 (Level 5: the growth inhibition rate is greater than 85%) | 5 (Level 5: the growth inhibition rate is greater than 85%) | 5 (Level 5: the growth inhibition rate is greater than 85%) |
| CCCn1cc(CCOC(=O)C(C)Oc2nc(F)c(Cl)c(N)c2Cl)cn1 (stereo not shown) [Compound 133] | 5 (Level 5: the growth inhibition rate is greater than 85%) | 5 (Level 5: the growth inhibition rate is greater than 85%) | 5 (Level 5: the growth inhibition rate is greater than 85%) | 5 (Level 5: the growth inhibition rate is greater than 85%) | 5 (Level 5: the growth inhibition rate is greater than 85%) |
| CC(Oc1nc(F)c(Cl)c(N)c1Cl)C(=O)SCCc1cnno1 (stereo not shown) [Compound 152] | 5 (Level 5: the growth inhibition rate is greater than 85%) | 5 (Level 5: the growth inhibition rate is greater than 85%) | 5 (Level 5: the growth inhibition rate is greater than 85%) | 5 (Level 5: the growth inhibition rate is greater than 85%) | 5 (Level 5: the growth inhibition rate is greater than 85%) |
| CC(Oc1nc(F)c(Cl)c(N)c1Cl)C(=O)OCc1ccccc1C(F)(F)F (stereo not shown) [Compound 208] | 5 (Level 5: the growth inhibition rate is greater than 85%) | 5 (Level 5: the growth inhibition rate is greater than 85%) | 5 (Level 5: the growth inhibition rate is greater than 85%) | 5 (Level 5: the growth inhibition rate is greater than 85%) | 5 (Level 5: the growth inhibition rate is greater than 85%) |
| CC(Oc1nc(F)c(Cl)c(N)c1Cl)C(=O)SCc1cccc(C#N)c1 (stereo not shown) [Compound 226] | 5 (Level 5: the growth inhibition rate is greater than 85%) | 5 (Level 5: the growth inhibition rate is greater than 85%) | 5 (Level 5: the growth inhibition rate is greater than 85%) | 5 (Level 5: the growth inhibition rate is greater than 85%) | 5 (Level 5: the growth inhibition rate is greater than 85%) |
| CC(Oc1nc(F)c(Cl)c(N)c1Cl)C(=O)SCc1ccc(F)cc1 (stereo not shown) [Compound 223] | 5 (Level 5: the growth inhibition rate is greater than 85%) | 5 (Level 5: the growth inhibition rate is greater than 85%) | 5 (Level 5: the growth inhibition rate is greater than 85%) | 5 (Level 5: the growth inhibition rate is greater than 85%) | 5 (Level 5: the growth inhibition rate is greater than 85%) |
| CC(Oc1nc(F)c(Cl)c(N)c1Cl)C(=O)OCc1ccnn1C (stereo not shown) [Compound 216] | 5 (Level 5: the growth inhibition rate is greater than 85%) | 5 (Level 5: the growth inhibition rate is greater than 85%) | 5 (Level 5: the growth inhibition rate is greater than 85%) | 5 (Level 5: the growth inhibition rate is greater than 85%) | 5 (Level 5: the growth inhibition rate is greater than 85%) |
| CC(Oc1nc(F)c(C(F)(F)F)c(N)c1Cl)C(=O)OCc1ccccc1 (stereo not shown) [Compound 15] | 5 (Level 5: the growth inhibition rate is greater than 85%) | 5 (Level 5: the growth inhibition rate is greater than 85%) | 5 (Level 5: the growth inhibition rate is greater than 85%) | 5 (Level 5: the growth inhibition rate is greater than 85%) | 5 (Level 5: the growth inhibition rate is greater than 85%) |
| CC(Oc1nc(F)c(Cl)c(N)c1Cl)C(=O)OCc1ccsc1 (stereo not shown) [Compound 215] | 5 (Level 5: the growth inhibition rate is greater than 85%) | 5 (Level 5: the growth inhibition rate is greater than 85%) | 5 (Level 5: the growth inhibition rate is greater than 85%) | 5 (Level 5: the growth inhibition rate is greater than 85%) | 5 (Level 5: the growth inhibition rate is greater than 85%) |
| CC(Oc1nc(C(F)(F)F)c(F)c(N)c1C(C)C)C(=O)OCc1ccccc1 (stereo not shown) [Compound 11] | 5 (Level 5: the growth inhibition rate is greater than 85%) | 5 (Level 5: the growth inhibition rate is greater than 85%) | 5 (Level 5: the growth inhibition rate is greater than 85%) | 5 (Level 5: the growth inhibition rate is greater than 85%) | 5 (Level 5: the growth inhibition rate is greater than 85%) |
